Measurements published in patent US20130210846A1, “USE OF NOVEL PAN-CDK INHIBITORS FOR TREATING TUMORS” (BAYER INTELLECTUAL PROPERTY GMBH, priority 2010, published 2013).

Key:
[1] = system: A2780-Cis cisplatin-resistant human ovarial tumor cells; assay: A2780-Cis human ovarial tumor model; assay type: in vivo, female NMRI nude mice
Source text: (§1) Tumor cells grown in cell culture were implanted subcutaneously in the flank of female or male NMRI nude mice. The treatment was started as soon as the tumors had grown to a size of approx. 20 mm^2 The study was ended as soon as the tumors in one of the groups reached a size of approx. 150 mm^2.
(§2) Vehicle group: treatment with solubilizer (40% PEG400/60% water)
(§3) The studies were designed for determining the initial response of the human tumor model to the treatment with the Exemplary compound 2-SI-2. Tumor growth inhibition in percent (TGI) was either calculated at the end of the studies from the tumor weights (TGITW) using the formula 100×[1−(tumor weight of the treatment group/tumor weight of the vehicle group)], or on the day the vehicle group had to be ended from the tumor areas (TGITA) using the formula 100×[1−(tumor area of the treatment group on the day of the measurement−tumor area of the treatment group prior to treatment)/(tumor area of the vehicle group on the day of the measurement−tumor area of the vehicle group prior to treatment)]. In the case of a tumor growth inhibition of more than 50%, the treatment was considered to have been effective.
Efficacy in the A2780-Cis human ovarial tumor model.
Efficacy in the A2780-Cis human ovarial tumor model A2780-Cis cisplatin-resistant human ovarial tumor cells implanted into female NMRI nude mice.
• a) 0.20 mg/ml of Example 2-SI-2 in 40% (v/v) PEG 400 in water • b) 0.15 mg/ml of Example 2-SI-2 in 40% (v/v) PEG 400 in water • c) 0.17 mg/ml of Example 2-SI-2 in 40% (v/v) PEG 400 in water
• a) 2.0 mg/kg (6.0 mg/m^2), 1× per day. • b) 1.5 mg/kg (4.5 mg/m^2), 2× per day on 3 successive days, followed by 4 treatment-free days. • c) 1.7 mg/kg (5.1 mg/m^2), 2× per day on 3 successive days, followed by 4 treatment-free days.

[2] = system: NCI-H146 human small-cell lung tumor cells; assay: NCI-H146 human small-cell lung tumor model; assay type: in vivo, female NMRI nude mice
Source text: as §1, §2, §3
Efficacy in the NCI-H146 human small-cell lung tumor model.
NCI-H146 human small-cell lung tumor cells implanted into female NMRI nude mice. […]

[3] = system: HeLa-MaTu human cervix carcinoma cells; assay: HeLa-MaTu human cervix carcinoma xenograft model; assay type: in vivo, female NMRI nude mice
Source text: as §1, §2, §3
Efficacy in the HeLa-MaTu human cervix carcinoma xenograft model
HeLa-MaTu human cervix carcinoma cells implanted into female NMRI nude mice
• a) 0.05 mg/ml, 0.10 mg/ml, 0.15 mg/ml, 0.2 mg/ml of Example 2-SI-2 in 40% (v/v) PEG 400 in water • b) 0.15 mg/ml, 0.2 mg/ml, 0.25 mg/ml of Example 2-SI-2 in 40% (v/v) PEG 400 in water
• a) 0.5 to 2.0 mg/kg (1.5 to 6.0 mg/m^2) 1× per day b) 1.5 to 2.5 mg/kg (4.5 to 7.5 mg/m^2) 2× per day on 2 successive days, followed by 5 treatment-free days

[4] = system: A375; assay: Proliferation assay A375; assay type: cell-based; conditions: Homo sapiens, A-375, 96 h; A375, skin: melanoma; 4 days, crystal violet
Description: Cultivated human tumor cells (originally obtained from ATCC, HeLa-MaTu and HeLa-MaTu-ADR, originally obtained from Epo GmbH, Berlin, Germany) were plated at a density of 1000 to 5000 cells/measuring point, depending on the growth rate of the cell line, in a 96-well multititer plate in 200 μl of growth medium (DMEM/HAMS F12, 2 mM L-glutamine, 10% fetal calf serum). After 24 hours the cells of one plate (zero-point plate) were stained with crystal violet (see below), whereas the medium of the other plates was replaced with fresh culture medium (200 μl), to which the test substances had been added at various concentrations (0 μM, and in the range 0.01-30 μM; the final concentration of the solvent dimethyl sulfoxide was 0.5%). The cells were incubated for 4 days in the presence of the test substances. Cellular proliferation was determined by staining the cells with crystal violet: the cells were fixed by adding 20 μl/measuring point of an 11% glutaraldehyde solution for 15 min at room temperature. […] The extinction was determined photometrically at a wavelength of 595 nm. The percentage change in cell growth was calculated by standardization of the measured values to the extinction values of the zero-point plate (=0%) and the extinction of the untreated (0 μM) cells (=100%). […] The IC50 values were determined by means of a 4-parameter fit using the company's own software. […]

[5] = HeLa-MaTu; b) 2.5 mg/kg oral 2× per day on 2 successive days, followed by 5 treatment-free days

Row | IC50 [4] | Structure (SMILES) | TGITW (tumor growth inhibition from tumor weights) ([1]; A2780-Cis; a) 2.0 mg/kg oral 1× per day) | TGITW (tumor growth inhibition from tumor weights) ([1]; A2780-Cis; b) 1.5 mg/kg oral 2× per day on 3 successive days, followed by 4 treatment-free days) | TGITW (tumor growth inhibition from tumor weights) ([1]; A2780-Cis; c) 1.7 mg/kg oral 2× per day on 3 successive days, followed by 4 treatment-free days) | TGITW (tumor growth inhibition from tumor weights) ([2]; NCI-H146; a) 2.0 mg/kg oral 1× per day) | TGITW (tumor growth inhibition from tumor weights) ([2]; NCI-H146; b) 2.0 mg/kg oral 2× per day on 2 successive days, followed by 5 treatment-free days) | TGITW (tumor growth inhibition from tumor weights) ([3]; HeLa-MaTu; a) 2.0 mg/kg oral 1× per day) | TGITW (tumor growth inhibition from tumor weights) [3, 5] | tumor regression observation [3, 5]
1 | – | C[C@@H](O)[C@@H](C)Oc1nc(Nc2ccc(S(C)(=N)=O)cc2)ncc1C(F)(F)F (mixture of isomers) [Example 2-SI-2, (RS)—S-(4-{[4-{[(1R,2R)-2-Hydroxy-1-methylpropyl]oxy}-5-(trifluoromethyl)pyrimidin-2-yl]-amino}phenyl)-S-methylsulfoximide] | 85% | 88% | 92% | 95% | 82% | 97% | 98% | signs of tumor regression
2 | 15 nM | C[C@@H](O)[C@@H](C)Oc1nc(Nc2ccc(S(C)(=N)=O)cc2)ncc1C(F)(F)F (single isomer, unassigned) [Example 2-SI-2] | – | – | – | – | – | – | – | –
